This data set concerns mouse CD45-FLK1+CD31+CD34+ cells (liver sinusoidal endothelial progenitor cells). Put plainly: Expression of liver sinusoidal endothelial cell marker genes by quantitative RT-PCR in mouse embryonic liver FLK1+CD31+CD34+ cells. It is filed as cell-based. As to conditions: 5 days after addition of A83-01, versus day 0 before addition; FIG. 45. As to the method: TRIzol reagent (Life Technologies) or NucleoSpin RNA XS (MACHEREY-NAGAL, Duren, Germany) was used to extract the RNA. The remaining genomic DNA was digested using DNaseI (Life Technologies), and then a PrimeScript II 1st strand cDNA Synthesis Kit (Takara Bio, Shiga, Japan) was used to synthesize single-stranded cDNA. The quantitative RT-PCR was carried out using SYBR Premix EX TaqII (Takara Bio, Shiga, Japan), and the data were calculated according to the ddCt method with β-actin as the standardization control.
Liver was collected from a 12.5-day-old mouse embryo (C57BL/6 mouse). The liver was minced and digested for 10 minutes with Liver Digestion Medium (Life Technologies, California, US). The digested embryonic mouse hepatocytes were subjected to hemolysis and passed through a 70 μm cell strainer (BD Bioscience, New Jersey, US). […]
The FLK1^+CD31^+CD34^+ cells separated above were also seeded in a fibronectin-coated plate to 15,000 cells/cm^2 and cultured in endothelial cell medium. […] The cell count was calculated using a hemocytometer, after dissociating the cells using 0.05% trypsin/0.5 mM EDTA.

Each structure is given as a SMILES string.

Turning to `Cc1cccc(-c2nn(C(=S)Nc3ccccc3)cc2-c2ccnc3ccccc23)n1` [A83-01, 3-(6-methyl-2-pyridinyl)-N-phenyl-4-(4-quinolinyl)-1H-pyrazolo-1-carbothioamide], the “expression of the mature liver sinusoidal endothelial cell marker genes Stab2, F8 and Lyve1” value is recorded as “significantly induced expression”.

The record behind these values is patent publication US12128072B2, “Hepatocytes and hepatic non-parenchymal cells, and methods for preparation thereof” (The University of Tokyo, priority 2015, dated 2024).
